How the values were obtained:
Test in all cases: Kinobeads competition binding, HL60 cell lysate
Conditions in all cases: 10 μM free compound
[1] = molecular target: FER (Homo sapiens, UniProt P16591); design: endogenous in cells; host or cells: HL60 (DSMZ ACC3)
Protocol: (§1) To one aliquot of cell lysate 10 μM of the free compound (FIG. 3, CZC31326) was added and allowed to bind to proteins in the lysate. Then the affinity matrix with the immobilized compound (Example 1) was added to capture proteins that were not interacting with the previously added free compound. Beads were separated from the lysate and bead bound proteins were eluted in SDS sample buffer and subsequently separated by SDS-Polyacrylamide gel electrophoresis (FIG. 4). Suitable gel bands were cut out and subjected to in-gel proteolytic digestion with trypsin. The second lysate aliquot was processed identically, however no free compound was added (DMSO solvent control). Peptides originating from samples 1 and 2 were labeled with iTRAQ reagents (iTRAQ 114 and iTRAQ 117) and the combined samples were analyzed with a nano-flow liquid chromatography system coupled online to a tandem mass spectrometer (LC-MS/MS) experiment followed by iTRAQ reporter ion quantification in the MS/MS spectra (Ross et al., 2004. Mol. Cell. Proteomics 3(12):1154-1169). Further experimental protocols can be found in WO2006/134056 and a previous publication (Bantscheff et al., 2007. Nature Biotechnology 25, 1035-1044). Sepharose-beads with the immobilized compound (100 μl beads per pull-down experiment) were equilibrated in lysis buffer and incubated with a cell lysate sample containing 50 mg of protein on an end-over-end shaker (Roto Shake Genie, Scientific Industries Inc.) for 2 hours at 4° C. […] The iTRAQ reagents are a set of multiplexed, amine-specific, stable isotope reagents that can label peptides on amino groups in up to four different biological samples enabling simultaneous identification and quantitation of peptides. […] Relative protein quantitation was performed using peak areas of iTRAQ reporter ion signals essentially as described in an earlier publication (Bantscheff et al., 2007. Nature Biotechnology 25, 1035-1044).

[2] = molecular target: DNAPK (Homo sapiens, UniProt P78527); design: endogenous in cells; host or cells: HL60 (DSMZ ACC3)
Sequence of DNAPK (P78527 whole entry): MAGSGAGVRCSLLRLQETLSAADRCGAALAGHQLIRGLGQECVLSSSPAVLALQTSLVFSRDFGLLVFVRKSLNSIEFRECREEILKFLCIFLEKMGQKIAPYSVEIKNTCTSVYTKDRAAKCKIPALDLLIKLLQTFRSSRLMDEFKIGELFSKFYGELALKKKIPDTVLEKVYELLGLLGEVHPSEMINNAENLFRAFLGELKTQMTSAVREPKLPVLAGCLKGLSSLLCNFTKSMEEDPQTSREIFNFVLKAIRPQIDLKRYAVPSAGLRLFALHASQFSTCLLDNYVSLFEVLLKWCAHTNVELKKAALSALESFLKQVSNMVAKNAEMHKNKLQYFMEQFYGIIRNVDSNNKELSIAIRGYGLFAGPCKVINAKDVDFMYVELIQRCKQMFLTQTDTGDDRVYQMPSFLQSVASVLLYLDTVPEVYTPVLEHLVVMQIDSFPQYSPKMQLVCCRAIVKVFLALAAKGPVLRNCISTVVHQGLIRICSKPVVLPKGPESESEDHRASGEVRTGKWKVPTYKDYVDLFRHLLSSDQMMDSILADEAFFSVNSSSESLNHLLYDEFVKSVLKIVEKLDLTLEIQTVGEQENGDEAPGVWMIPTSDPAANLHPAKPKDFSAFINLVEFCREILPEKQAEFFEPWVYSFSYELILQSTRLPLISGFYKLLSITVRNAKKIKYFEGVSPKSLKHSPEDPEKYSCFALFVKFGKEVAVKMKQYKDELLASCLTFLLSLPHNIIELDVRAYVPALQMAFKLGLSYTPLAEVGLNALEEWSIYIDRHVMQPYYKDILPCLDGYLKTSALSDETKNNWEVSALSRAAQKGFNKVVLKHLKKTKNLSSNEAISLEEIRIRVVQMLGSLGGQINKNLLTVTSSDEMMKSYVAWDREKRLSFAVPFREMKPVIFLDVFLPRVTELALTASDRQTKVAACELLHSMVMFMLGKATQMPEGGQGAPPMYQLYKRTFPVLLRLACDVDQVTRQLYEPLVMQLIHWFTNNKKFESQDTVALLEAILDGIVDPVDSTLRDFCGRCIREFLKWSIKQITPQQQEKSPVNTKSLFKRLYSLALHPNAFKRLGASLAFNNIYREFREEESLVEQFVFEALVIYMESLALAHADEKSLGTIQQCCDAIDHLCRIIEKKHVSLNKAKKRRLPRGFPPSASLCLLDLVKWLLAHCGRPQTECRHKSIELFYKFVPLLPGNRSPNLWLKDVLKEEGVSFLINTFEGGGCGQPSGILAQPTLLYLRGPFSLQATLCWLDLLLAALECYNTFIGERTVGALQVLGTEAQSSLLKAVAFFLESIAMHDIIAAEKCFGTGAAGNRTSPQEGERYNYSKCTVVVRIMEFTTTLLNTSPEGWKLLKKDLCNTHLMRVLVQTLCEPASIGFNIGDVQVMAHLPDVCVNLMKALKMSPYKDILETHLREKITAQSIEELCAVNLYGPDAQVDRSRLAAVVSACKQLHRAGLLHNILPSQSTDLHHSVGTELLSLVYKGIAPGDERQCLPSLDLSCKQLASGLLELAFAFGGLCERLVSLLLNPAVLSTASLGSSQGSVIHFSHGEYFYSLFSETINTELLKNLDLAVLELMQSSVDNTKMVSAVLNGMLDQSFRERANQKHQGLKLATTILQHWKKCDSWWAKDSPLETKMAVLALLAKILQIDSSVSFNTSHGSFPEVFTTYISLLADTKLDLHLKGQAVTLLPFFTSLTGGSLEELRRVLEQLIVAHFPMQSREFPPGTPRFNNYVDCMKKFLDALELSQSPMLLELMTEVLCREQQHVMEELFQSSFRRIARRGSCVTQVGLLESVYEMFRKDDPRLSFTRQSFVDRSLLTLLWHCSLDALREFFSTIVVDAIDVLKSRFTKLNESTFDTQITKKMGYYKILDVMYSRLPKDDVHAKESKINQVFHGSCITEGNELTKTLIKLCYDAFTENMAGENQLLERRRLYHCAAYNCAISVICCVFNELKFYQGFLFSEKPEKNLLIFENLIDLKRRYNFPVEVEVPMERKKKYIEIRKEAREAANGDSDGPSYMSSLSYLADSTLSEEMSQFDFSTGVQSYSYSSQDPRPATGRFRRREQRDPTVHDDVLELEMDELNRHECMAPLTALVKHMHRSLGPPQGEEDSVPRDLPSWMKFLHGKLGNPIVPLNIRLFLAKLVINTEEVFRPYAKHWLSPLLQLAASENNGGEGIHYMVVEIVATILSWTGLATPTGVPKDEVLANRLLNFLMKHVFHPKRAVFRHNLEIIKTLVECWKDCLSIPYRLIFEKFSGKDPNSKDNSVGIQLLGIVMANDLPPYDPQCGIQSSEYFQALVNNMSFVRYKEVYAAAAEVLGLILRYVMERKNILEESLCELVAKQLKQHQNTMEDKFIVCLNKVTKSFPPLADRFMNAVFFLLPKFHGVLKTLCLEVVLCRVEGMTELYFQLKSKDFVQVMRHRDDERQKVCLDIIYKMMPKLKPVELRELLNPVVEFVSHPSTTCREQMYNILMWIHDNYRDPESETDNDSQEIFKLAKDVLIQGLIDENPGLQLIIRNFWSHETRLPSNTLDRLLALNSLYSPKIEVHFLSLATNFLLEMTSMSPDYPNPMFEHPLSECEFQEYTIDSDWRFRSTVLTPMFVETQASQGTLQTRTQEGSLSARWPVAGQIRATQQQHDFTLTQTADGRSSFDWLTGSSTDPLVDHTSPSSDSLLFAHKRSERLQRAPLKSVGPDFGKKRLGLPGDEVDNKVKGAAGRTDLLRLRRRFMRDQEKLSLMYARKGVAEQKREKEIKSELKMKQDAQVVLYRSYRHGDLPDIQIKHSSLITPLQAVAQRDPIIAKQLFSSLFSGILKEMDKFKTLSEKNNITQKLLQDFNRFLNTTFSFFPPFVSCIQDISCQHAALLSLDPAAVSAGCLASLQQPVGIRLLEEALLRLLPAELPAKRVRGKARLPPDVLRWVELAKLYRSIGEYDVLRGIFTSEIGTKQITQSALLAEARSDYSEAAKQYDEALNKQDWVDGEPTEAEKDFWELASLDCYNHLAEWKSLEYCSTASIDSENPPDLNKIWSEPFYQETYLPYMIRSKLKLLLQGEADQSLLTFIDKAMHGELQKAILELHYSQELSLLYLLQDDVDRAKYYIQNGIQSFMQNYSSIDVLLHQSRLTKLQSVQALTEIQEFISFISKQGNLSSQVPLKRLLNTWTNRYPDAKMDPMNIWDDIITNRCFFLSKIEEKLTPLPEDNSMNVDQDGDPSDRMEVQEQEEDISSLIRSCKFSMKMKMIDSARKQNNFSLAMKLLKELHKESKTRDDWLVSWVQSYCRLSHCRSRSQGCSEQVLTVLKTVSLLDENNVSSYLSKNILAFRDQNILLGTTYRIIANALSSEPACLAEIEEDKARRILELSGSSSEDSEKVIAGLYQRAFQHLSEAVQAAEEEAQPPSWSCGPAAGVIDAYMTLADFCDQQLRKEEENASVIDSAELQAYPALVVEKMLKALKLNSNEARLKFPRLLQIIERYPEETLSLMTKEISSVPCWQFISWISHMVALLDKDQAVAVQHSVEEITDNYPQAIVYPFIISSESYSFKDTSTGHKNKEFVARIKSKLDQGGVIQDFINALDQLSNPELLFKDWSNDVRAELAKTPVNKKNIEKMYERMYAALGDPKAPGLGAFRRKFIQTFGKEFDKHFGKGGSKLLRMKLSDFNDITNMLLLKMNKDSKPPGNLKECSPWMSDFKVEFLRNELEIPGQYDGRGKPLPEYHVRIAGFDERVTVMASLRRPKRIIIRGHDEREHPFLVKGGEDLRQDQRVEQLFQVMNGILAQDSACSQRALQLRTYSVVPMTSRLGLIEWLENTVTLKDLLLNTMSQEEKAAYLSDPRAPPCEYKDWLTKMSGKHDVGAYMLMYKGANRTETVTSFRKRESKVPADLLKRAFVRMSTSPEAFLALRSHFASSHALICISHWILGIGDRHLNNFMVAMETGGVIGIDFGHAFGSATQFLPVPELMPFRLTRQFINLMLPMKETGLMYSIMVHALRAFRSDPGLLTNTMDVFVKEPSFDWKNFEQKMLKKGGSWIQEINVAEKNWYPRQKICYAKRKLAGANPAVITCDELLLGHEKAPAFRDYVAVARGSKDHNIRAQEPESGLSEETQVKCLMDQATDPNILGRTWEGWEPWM
Protocol: as §1

[3] = molecular target: Erk1 (Homo sapiens, UniProt P27361); design: endogenous in cells; host or cells: HL60 (DSMZ ACC3)
Sequence of Erk1 (P27361 whole entry): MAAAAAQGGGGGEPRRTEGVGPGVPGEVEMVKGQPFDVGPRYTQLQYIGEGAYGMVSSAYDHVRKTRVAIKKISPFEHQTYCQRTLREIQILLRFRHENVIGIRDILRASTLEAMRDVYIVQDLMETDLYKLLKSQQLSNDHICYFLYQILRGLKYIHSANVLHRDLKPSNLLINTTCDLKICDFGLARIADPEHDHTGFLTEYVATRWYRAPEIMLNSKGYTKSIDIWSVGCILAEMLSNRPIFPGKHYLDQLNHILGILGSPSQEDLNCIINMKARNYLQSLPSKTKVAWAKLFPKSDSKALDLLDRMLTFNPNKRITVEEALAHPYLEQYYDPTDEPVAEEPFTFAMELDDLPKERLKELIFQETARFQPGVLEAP
Protocol: as §1

[4] = molecular target: MAP2K1 (Homo sapiens, UniProt Q02750); design: Identified kinases with CZC31326 from HL60 lysate; endogenous in cells; host or cells: HL60
Sequence of MAP2K1 (Q02750 whole entry): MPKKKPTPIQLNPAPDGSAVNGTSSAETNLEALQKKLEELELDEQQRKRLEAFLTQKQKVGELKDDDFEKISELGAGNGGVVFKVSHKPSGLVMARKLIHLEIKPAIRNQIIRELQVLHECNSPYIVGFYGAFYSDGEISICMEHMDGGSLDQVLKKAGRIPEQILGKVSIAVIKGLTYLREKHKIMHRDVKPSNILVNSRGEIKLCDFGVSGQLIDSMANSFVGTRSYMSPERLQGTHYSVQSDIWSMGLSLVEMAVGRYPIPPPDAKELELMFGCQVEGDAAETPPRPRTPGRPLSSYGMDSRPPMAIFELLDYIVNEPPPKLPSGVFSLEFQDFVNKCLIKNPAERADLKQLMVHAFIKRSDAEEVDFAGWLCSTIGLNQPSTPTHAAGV
Protocol: (§2) To one aliquot of cell lysate 10 μM of the free compound (FIG. 3, CZC31326) was added and allowed to bind to proteins in the lysate. Then the affinity matrix with the immobilized compound (Example 1) was added to capture proteins that were not interacting with the previously added free compound. Beads were separated from the lysate and bead bound proteins were eluted in SDS sample buffer and subsequently separated by SDS-Polyacrylamide gel electrophoresis (FIG. 4). Suitable gel bands were cut out and subjected to in-gel proteolytic digestion with trypsin. The second lysate aliquot was processed identically, however no free compound was added (DMSO solvent control). Peptides originating from samples 1 and 2 were labeled with iTRAQ reagents (iTRAQ 114 and iTRAQ 117) and the combined samples were analyzed with a nano-flow liquid chromatography system coupled online to a tandem mass spectrometer (LC-MS/MS) experiment followed by iTRAQ reporter ion quantification in the MS/MS spectra (Ross et al., 2004. Mol. Cell. Proteomics 3(12):1154-1169). Further experimental protocols can be found in WO2006/134056 and a previous publication (Bantscheff et al., 2007. Nature Biotechnology 25, 1035-1044). Sepharose-beads with the immobilized compound (100 μl beads per pull-down experiment) were equilibrated in lysis buffer and incubated with a cell lysate sample containing 50 mg of protein on an end-over-end shaker (Roto Shake Genie, Scientific Industries Inc.) for 2 hours at 4° C. Beads were collected, transferred to Mobicol-columns (MoBiTech 10055) and washed with 10 ml lysis buffer containing 0.4% NP40 detergent, followed by 5 ml lysis buffer containing 0.2% detergent. To elute bound proteins, 60 μl 2×SDS sample buffer was added to the column. The column was incubated for 30 minutes at 50° C. and the eluate was transferred to a siliconized microfuge tube by centrifugation. Proteins were then alkylated with 108 mM iodoacetamid. Proteins were then separated by SDS-Polyacrylamide electrophoresis (SDS-PAGE). The peptide extracts of samples treated with 10 μM of free compound (CZC31326) and the solvent control (0.5% DMSO) were treated with different variants of the isobaric tagging reagent (iTRAQ Reagents Multiplex Kit, part number 4352135, Applied Biosystems, Foster City, Calif., USA). The iTRAQ reagents are a set of multiplexed, amine-specific, stable isotope reagents that can label peptides on amino groups in up to four different biological samples enabling simultaneous identification and quantitation of peptides. […] Relative protein quantitation was performed using peak areas of iTRAQ reporter ion signals essentially as described in an earlier publication (Bantscheff et al., 2007. Nature Biotechnology 25, 1035-1044).

[5] = molecular target: LOK (Homo sapiens, UniProt O94804); design: Identified kinases with CZC31326 from HL60 lysate; endogenous in cells; host or cells: HL60
Protocol: as §2

[6] = molecular target: LRRK2 (Homo sapiens, UniProt Q5S007); design: Identified kinases with CZC31326 from HL60 lysate; endogenous in cells; host or cells: HL60
Protocol: as §2

[7] = molecular target: T1, MAP3K2 (Homo sapiens, UniProt Q9Y2U5); design: endogenous in cells; host or cells: HL60 cell lysate
T1 sequence (Q9Y2U5 1-619): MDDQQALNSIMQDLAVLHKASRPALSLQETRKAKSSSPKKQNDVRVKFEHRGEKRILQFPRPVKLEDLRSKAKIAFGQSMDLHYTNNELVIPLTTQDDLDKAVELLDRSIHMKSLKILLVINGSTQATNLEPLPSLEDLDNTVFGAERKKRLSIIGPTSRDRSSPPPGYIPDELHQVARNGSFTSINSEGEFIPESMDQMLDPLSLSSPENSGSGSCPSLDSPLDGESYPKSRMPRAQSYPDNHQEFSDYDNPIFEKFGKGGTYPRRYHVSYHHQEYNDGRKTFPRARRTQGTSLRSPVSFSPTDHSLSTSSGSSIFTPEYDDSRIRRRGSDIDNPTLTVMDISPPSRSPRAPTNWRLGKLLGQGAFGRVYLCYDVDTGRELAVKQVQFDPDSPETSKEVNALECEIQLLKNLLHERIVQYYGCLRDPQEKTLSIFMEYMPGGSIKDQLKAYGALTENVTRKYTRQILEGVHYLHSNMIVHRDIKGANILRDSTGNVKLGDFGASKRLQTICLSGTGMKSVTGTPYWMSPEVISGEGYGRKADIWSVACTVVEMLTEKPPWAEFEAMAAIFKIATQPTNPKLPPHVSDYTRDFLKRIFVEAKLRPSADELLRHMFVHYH
Protocol: as §1

[8] = molecular target: MARK2 (Homo sapiens, UniProt Q7KZI7); design: endogenous in cells; host or cells: HL60 cell lysate
Protocol: as §1

`CS(=O)(=O)Nc1ccccc1Nc1nc(Nc2cccc(OCCN)c2)ncc1Cl` [CZC31326, N-(2-(2-(3-(2-aminoethoxy)phenylamino)-5-chloropyrimidin-4-ylamino)phenyl)methanesulfonamide] gave an inhibition at 10 µM [1] of 97.7%, an inhibition at 10 µM [2] of 75.5% and an inhibition at 10 µM [3] of 84.8%. It also gave an inhibition at 10 µM [4] of 85.2%, a Competition % [5] of 95.3% and an inhibition at 10 µM [6] of 71.7%. The inhibition at 10 µM [7] was 96.3% and the inhibition at 10 µM [8] was 97.1%.
